molecular target: T1, human MCH-1R (Homo sapiens, UniProt Q99705); assay: MCH binding inhibition test; conditions: not given
T1 construct: expressed in transfected cells; host or cells: CHO-K1 (American Type Culture Collection), membrane samples
Description: Pharmacological Test Example 1
(MCH Binding Inhibition Test)
A human MCH-1R encoding cDNA sequence [FEBS Letters, Vol. 398, p. 253 (1996); Biochimica et Biophisica Acta, Vol. 1401, p. 216 (1998)] was cloned to plasmid vector pEF/mic/cyto (Invitrogen Corporation). The obtained expression vector was transfected to a host cell CHO-K1 (American Type Culture Collection) using lipofectamine plus reagent (Life Technology Inc.) to provide MCH-1R expression cells.
Membrane samples prepared from the MCH-1R expression cells were incubated with each test compound and 50 pM of [^125I]MCH (NEN Co.), in an assay buffer (50 mM Tris buffer comprising 10 mM magnesium chloride, 2 mM ethylenediamine tetraacetate, 0.01% bacitracin and 0.2% bovine serum albumin; pH 7.4) at 25° C. for an hour, followed by filtration through Glass Filter GF/C (Wattman Co.). After washing the glass filter with 50 mM Tris buffer (pH7.4) comprising 10 mM magnesium chloride, 2 mM ethylenediamine tetraacetate and 0.04% Tween-20, radiative activity on the glass filter was measured. Non-specific binding was measured in the presence of 1 μM human MCH and 50% inhibition concentration (IC50 value) of each test compound to specific [^125] MCH binding was determined.

T1 sequence (Q99705 whole entry): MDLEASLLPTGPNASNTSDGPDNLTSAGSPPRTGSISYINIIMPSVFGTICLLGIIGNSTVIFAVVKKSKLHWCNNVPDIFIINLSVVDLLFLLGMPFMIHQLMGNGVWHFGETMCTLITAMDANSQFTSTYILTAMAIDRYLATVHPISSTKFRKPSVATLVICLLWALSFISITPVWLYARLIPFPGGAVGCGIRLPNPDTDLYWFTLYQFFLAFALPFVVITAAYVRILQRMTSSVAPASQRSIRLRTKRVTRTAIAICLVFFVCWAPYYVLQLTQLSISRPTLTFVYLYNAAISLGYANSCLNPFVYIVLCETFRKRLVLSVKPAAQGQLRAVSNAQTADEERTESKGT

| SMILES | IC50 |
| --- | --- |
| CN(CCCN1CCC2(CC1)OCc1cc(F)ncc12)C(=O)C(c1ccc(F)nc1)c1ccc(F)nc1 [Example 48, 2,2-Bis(6-fluoro-3-pyridinyl)-N-methyl-N-[3-(spiro[5-fluoro-6-azaisobenzofuran-1(3H), 4′-piperidin]-1-yl)propyl]-acetamide] | 6.5 nM |
| CN(CCCN1CCC2(CC1)OCc1cc(F)ccc12)C(=O)C(c1ccc(F)c(F)c1)N1CCCC1=O (stereo not drawn) [Example 33, 2-(3,4-Difluorophenyl)-N-methyl-2-(2-oxo-1-pyrrolidinyl-N-[3-spiro[5-fluoroisobenzofuran-1(3H), 4′-piperidin]-1-yl)-propyl]acetamide] | 1.4 nM |
| O=C(NCCCN1CCC2(CC1)OCc1cc(F)ccc12)C(c1ccc(F)c(F)c1)N1CCCC1=O (stereo not drawn) [Example 6, 2-(3,4-Difluorophenyl)-2-(2-oxo-1-pyrrolidinyl)-N-[3-(spiro[5-fluoroisobenzofuran-1(3H), 4′-piperidin]-1-yl)propyl]-acetamide] | 5 nM |
| CN(CCCN1CCC2(CC1)OCc1ccccc12)C(=O)C(c1ccc(F)c(F)c1)n1ncnn1 (stereo not drawn) [Example 28, 2-(3,4-Difluorophenyl)-N-methyl-2-(2H-1,2,3,4-tetrazol-2-yl)-N-[3-(spiro[isobenzofuran-1(3H), 4′-piperidin]-1-yl)propyl]acetamide] | 1.9 nM |
| Cc1nccn1C(C(=O)N(C)CCCN1CCC2(CC1)OCc1ccc(F)cc12)c1ccc(F)c(F)c1 (stereo not drawn) [Example 43, 2-(3,4-Difluorophenyl)-N-methyl-2-(2-methyl-1H-imidazol-1-yl)-N-[3-(spiro[6-fluoroisobenzofuran-1(3H), 4′-piperidin]-1-yl)-propyl]acetamide] | 0.2 nM |

same assay, conditions: inhibition of specific [125I]MCH (50 pM) binding; membranes of MCH-1R expressing CHO-K1 cells; 25° C., one hour, pH 7.4; read-out: IC50

| SMILES | IC50 |
| --- | --- |
| CCN(CCCN1CCC2(CC1)OCc1ccccc12)C(=O)C(c1ccc(F)c(F)c1)N1CCCC1=O (stereo not drawn) [Example 67, 2-(3,4-Difluorophenyl)-N-ethyl-2-(2-oxo-1-pyrrolidinyl)-N-[3-(spiro[isobenzofuran-1(3H), 4′-piperidin]-1-yl)propyl]acetamide] | 1 nM |
| CCC(=O)Nc1cccc(C2CCN(CCCN(C)C(=O)C(C)(C)c3ccc(F)c(F)c3)CC2)c1 [Example 60, 2-(3,4-Difluorophenyl)-2,2-dimethyl-N-methyl-N-[3-(4-(3-(propionylamino)phenyl)-1-piperidinyl)propyl]acetamide] | 2.5 nM |
| CN(CCCN1CCC2(CC1)OCc1ccccc12)C(=O)C(c1ccc(F)c(F)c1)n1ccnn1 (stereo not drawn) [Example 18, 2-(3,4-Difluorophenyl)-N-methyl-2-(1H-1,2,3-triazol-1-yl)-N-[3-(spiro[isobenzofuran-1(3H), 4′-piperidin]-1-yl)propyl]acetamide] | 1.9 nM |
| CN(CCCN1CCC2(CC1)OCc1ccccc12)C(=O)C(c1ccc(Cl)cc1)n1cccc1 (stereo not drawn) [Example 12, 2-(4-Chlorophenyl)-N-methyl-2-(1H-pyrrol-1-yl)-N-[3-(spiro-[isobenzofuran-1(3H), 4′-piperidin]-1-yl)propyl]acetamide] | 1 nM |

— patent US7727998B2, “Melanin-concentrating hormone receptor antagonists containing piperidine derivatives as the active ingredient” (Banyu Pharmaceutical Co., Ltd., priority 2003, dated 2010)
